How the values were obtained:
[1] = system: Colo 205 cells; experiment: Cell cycle analysis by flow cytometry; assay type: cell-based, human
Procedure: (§1) The cell cycle progression of Colo205, HT 29 and HCT-15 cells was examined using flow cytometry after exposure to 1, 2, 4 or 8 μM DPA for 72 hours. […] HT-29 cells were mainly in G0/G1 phase (84.1-86.0%), and only a few percent of cells in S phase (7.4-8.0%) after exposure to 4 μM DPA for 48-72 h. […] The G0/G1 arrest was not induced in the HCT-15 cells treated with 1-8 μM DPA for 24-72 h. […] DPA exerted the dose specific effect for the induced G0/G1 arrest on Colo 205 cells. […] In addition, we noted that DPA-mediated accumulation of Colo205 and HT 29 cells in G1 phase (>80%) was similar to that of DPD (Anti-Cancer Drug 2004; 15:277-80). It is likely that the induced G1-arrest without concomitant apoptosis on Colo 205 and HT 29 colon cancer cells is one unique property of structure I.

[2] = system: HCT-15 cells; experiment: Cell cycle analysis by flow cytometry; assay type: cell-based, human
Procedure: as §1

[3] = system: Colo 205 cells; experiment: Reversibility of DPA-induced growth inhibition after drug withdrawal; assay type: cell-based, human
Procedure: To further investigate whether the DPA-induced growth inhibition was reversible, Colo 205 cells were treated with DPA for 72 hours, and the cells were withdrawn from DPA by culturing in fresh medium for another 48 or 72 hours. […] One possibility is that the relatively lipophilic nature of DPA or DPD reduced cellular efflux after the initial drug exposure. It is inferred that the irreversible property of adamantane and diamantane derivatives provides an advantage to prolong the anticancer activity.

[4] = system: human colon cancer Colo 205 xenografts; experiment: In vivo antiproliferation, colon cancer xenografts, DPA once a week; set-up: species or system ICR nude mice; settings: for tumor size compared to vehicle control: end point
Procedure: (§2) We further examined whether DPA is also effective in vivo after tumor formation. For compare the in vivo antitumor activity with DPD (DPA analogue), we followed the method of our previous study (Br. J Cancer 2003; 89: 1995-2003), and the similar doses were used. Cancer cells were transplanted into ICR nude mice, and when the tumors were palpable (2-4 mm), the mice were treated either with vehicle control or DPA (20-80 mg kg^−1, i.p., once a week). […] Its tumor size (48.6 mm^2) was about 3-fold larger than the average tumor size (16.7 mm^2) of the other DPA 80 mg kg^−1-treated mice at 7 days after the initial treatment. […] (ii) DPA presented the dose-specific effect for antitumor activity on human colon cancer xenografts. The dose-specific phenomenon was also found in vitro study of DPA-induced cell cycle arrest on Colo 205 cells as shown in Table 3.

[5] = Toxicity and body weight in nude mice, DPA once a week; assay type: in vivo; settings: DPA 20-80 mg kg^−1, i.p.
Procedure: as §2

[6] = system: human colon cancer Colo 205 xenografts; experiment: In vivo antitumor effect of DPA and/or CPT-11, xenografts; set-up: species or system ICR nude mice; settings: DPA 20 mg/kg i.p. twice a week; end of experiment
Procedure: To further investigate whether DPA could enhance the antitumoral activity of the chemotherapeutic agent CPT-11, Colo 205 cells were treated with DPA or DPA in combination with CPT-11. Cancer cells were transplanted into ICR nude mice, and when the tumors were palpable (30˜35 mm^3), the mice were treated either with vehicle control, CPT-11 or DPA (20 mg/kg, i.p., twice a week). Tumour volume(V) was calculated according to the following formula: V(mm^3)=0.4AB^2, where A and B are the longest diameter and the shortest diameter, respectively (Cancer Res. 1966; 26:1787-1800). […] The tumor size of DPA in combination with CPT-11-treated mice was a 73% decrease as compared with that of CPT-11-treated mice.

[7] = Toxicity, body weight and histology, DPA twice a week; assay type: in vivo, ICR nude mice

## Nc1ccc(Oc2ccc(C3(c4ccc(Oc5ccc(N)c(O)c5)cc4)C4CC5CC(C4)CC3C5)cc2)cc1O [DPA, 2,2-bis(4-(4-amino-3-hydroxyphenoxy)phenyl)adamantane]
[1]; Colo205
  accumulation of cells in G1 phase: > 80%
[1]; Colo 205, DPA 1 μM, 72 h
  G2/M(%): 10.1%
  S(%): 29.6%
[2]; 8 μM DPA for 24-48 h
  cells in G2/M phase: 6.9-7.6%
[2]; 1-8 μM DPA for 24-72 h
  G0/G1 arrest: not induced
[2]; DPA 1 μM, 24 h
  G0/G1(%): 31.4%
  G2/M(%): 18.1%
  S(%): 50.6%
[2]; DPA 1 μM, 48 h
  G0/G1(%): 39.1%
  G2/M(%): 15.8%
  S(%): 45.1%
[2]; DPA 1 μM, 72 h
  G0/G1(%): 51.8%
  G2/M(%): 13.2%
  S(%): 35.0%
[2]; DPA 2 μM, 24 h
  G0/G1(%): 31.8%
  G2/M(%): 14.2%
  S(%): 54.0%
[2]; DPA 2 μM, 48 h
  G0/G1(%): 35.2%
  G2/M(%): 16.0%
  S(%): 48.8%
[2]; DPA 2 μM, 72 h
  G0/G1(%): 49.2%
  G2/M(%): 14.3%
  S(%): 36.6%
[2]; DPA 4 μM, 24 h
  G0/G1(%): 30.6%
  G2/M(%): 11.2%
  S(%): 58.2%
[2]; DPA 4 μM, 48 h
  G0/G1(%): 30.5%
  G2/M(%): 14.3%
  S(%): 55.3%
[2]; DPA 4 μM, 72 h
  G0/G1(%): 40.8%
  G2/M(%): 17.2%
  S(%): 42.1%
[2]; DPA 8 μM, 24 h
  G0/G1(%): 39.6%
  G2/M(%): 6.9%
  S(%): 53.5%
[2]; DPA 8 μM, 48 h
  G0/G1(%): 37.5%
  G2/M(%): 7.6%
  S(%): 54.9%
[2]; DPA 8 μM, 72 h
  G0/G1(%): 38.2%
  G2/M(%): 11.9%
  S(%): 49.9%
[3]; 1 μM DPA 72 h, then 48-72 hours in fresh medium
  proliferation activity after removal of DPA: reversed and returned to control level
[3]; 2, 4 or 8 μM DPA 72 h, then 48-72 hours in fresh medium
  reversal of growth inhibition after removal of DPA: no reversal effect
[3]; haemocytometer, treated cells except 8 μM DPA
  cell viability: > 90%
[4]; Colo 205 xenografts, i.p.
  concentration of maximum in vivo antitumor effect: about 40 mg kg^−1 week^−1
[4]; DPA 20 mg kg^−1 i.p. once a week
  tumor size compared to vehicle control: not significantly decreased
[4]; DPA 40 mg kg^−1 i.p. once a week
  tumor size compared to control groups: significantly (P<0.05) decreased
[4]; DPA 40 mg kg^−1 i.p. once a week, end of study (control 81.5)
  average tumor size: 29.6 mm^2
[4]; DPA 80 mg kg^−1, 7 days after initial treatment
  tumor size of one mouse with abnormally large tumor: 48.6 mm^2
[4]; DPA 80 mg kg^−1, 7 days after initial treatment, without the outlier mouse
  average tumor size of the other mice: 16.7 mm^2
[4]; DPA 80 mg kg^−1 i.p. once a week
  tumor size compared to vehicle control: not significantly decreased
[5]
  body weight: No significant reduction in body weight
[6]
  tumor size compared to control groups: significantly (P<0.05) decreased
[7]; DPA 20~80 mg/kg, i.p., twice a week
  acute toxicity: no obviously acute toxicity
[7]; DPA-treated mice, twice a week
  body weight: no significant reduction in body weight
[7]; tissue slices stained with haematoxylin and eosin
  tissue damage in liver, lung and kidney: no tissue damage was observed

From patent US7365231B2, “Compound with antitumor activity and preparation method therefor” (National Taiwan University of Science & Technology, priority 2005, dated 2008)
